In data set [1] the test system is HepG2 cells. Particulars: cited from earlier work.
Data set [2] relates to C2Cl2 cells. Particulars: cited from earlier work.
For data set [3] the following is noted: general statement on XN; cited from earlier work.
In data set [4] the test system is HepG2 cells. Put plainly: MTT cell viability assay in HepG2 cells. The data set is classed as cell-based, human. Particulars: 24 hours. On the procedure:
(§1) To assess the toxicity of 4-(5-(4-hydroxyphenyl)-1-methyl-1h-pyrazol-3-yl)-5-methoxy-2-(3-methylbut-2-en-1-yl)benzene-1,3-diol (XP), in vitro cell viability assays were performed on several cell lines. HepG2, 3T3L1 and C2Cl2 cells were exposed to XP and cell viability was assessed using an MTT assay. At concentrations lower than 50 μM, XP had no effect on the viability of the human liver cancer cell lines HepG2 and murine myoblast cell lines C2Cl2 with respect to the control treatment (FIGS. 11A-11B). […] This establishes that XP is safe to use in vivo at dosages similar to xanthohumol.
(§2) Cell Viability Assays. Cells were seeded in 96-well plates 24 hours prior to adding the compound. HepG2 cells were seeded at a density of 5×10^4 cells/mL and C2Cl2 at 1×10^4 cells/mL in order to reach 80% confluency at the beginning of the experiment. After 24 hours, the culture medium was replaced with fresh medium containing various concentrations ranging between 0 and 200 μM of XP. The cells were incubated in the presence of the compound for 24 hours, at which time, the MTT viability assay was carried as previously described. MTT was dissolved at 0.5 mg/mL in serum-free Dulbecco's modified Eagle's medium, filter-sterilized and 100 μL was added to the cells. The cells were incubated for 3 hours and then acidified with 100% isopropanol for 15 minutes before absorbance reading at 570 nm on a BioTek Synergy HT plate reader.
On the technique in general: Tetrazolium assays rely on reduction of a dye to a coloured formazan, in cell work by metabolically active cells.

The subject of data set [5] is C2Cl2 cells. Put plainly: MTT cell viability assay in C2Cl2 cells. The data set is classed as cell-based, murine. The note with it: 24 hours. Here is the method: as §1
as §2, with “MTT was dissolved at 0.5 mg/mL in serum-free Dulbecco's modified Eagle's medium, filter-sterilized and 100 μL was added to the cells.” left out

For data set [6], the system named is LPS-activated RAW 264.7 cells. Put plainly: Nitric oxide (NO) assay, Griess reagent. In kind it is cell-based. Particulars: LPS 1 μg/mL, 24 hours. On the procedure:
Nitric Oxide (NO) Assay. NO secreted by LPS-activated RAW 264.7 cells into the culture medium was determined as nitrite by the Griess reagent. RAW 264.7 1 cells obtained from the American Type Culture Collection (Manassas, VA, USA) were cultured in DMEM supplemented with 2 mM glutamine, antibiotics (100 U/mL penicillin and 100 μg/mL streptomycin), and 10% heat-inactivated fetal bovine serum. The cells were initially grown in 75 cm^2 culture flasks at 37° C. in a humidified incubator with 5% CO2. After reaching 80% confluency, the cells were split by seeding them on 96-well plates (0.2 mL/well) at a density of 1.5×10^5 cells/mL. After a 24-hour incubation at 37° C., the cells were treated with LPS (1 μg/mL) with or without test compounds in various concentrations. Vehicle control cells were treated with dimethyl sulfoxide alone at a final concentration of 0.1%. Culture media from control and treated cells were collected after 24 hours of incubation and were frozen at −80° C. before analysis. For the determination of NO (as […]), […], aliquots of the thawed culture media were mixed with an equal volume of Griess reagent on a 96-well plate. […] The samples were incubated for 10 minutes at room temperature and then the absorbance was read at 550 nm using a SpectraMax 190 (Molecular Devices, Sunnyvale, CA) plate reader.

A further data set relates to HFD-fed C57BL/6J mice. The data set can be described thus: Follow-up study: XP given after 4 weeks of HFD pre-conditioning (Example 8). Particulars: for Decrease in weight gain, average: between weeks 9 and 12, versus HFD without compound. The data set is classed as in vivo. The source says: This example concerns the effects of administering 4-(5-(4-hydroxyphenyl)-1-methyl-1H-pyrazol-3-yl)-5-methoxy-2-(3-methylbut-2-en-1-yl)benzene-1,3-diol to mice after a pre-conditioning phase of 4 weeks during which animals were fed a high-fat diet (HFD) or a low-fat diet (LFD). Forty 9-week old wild-type (WT) male C57BL/6J mice were obtained from Jackson Laboratory (Bar Harbor, ME, USA). The mice were housed in ventilated cages under a 12-12-hr light-dark cycle. Of the 40 mice, 32 were fed a HFD (Dyets Inc., Bethlehem, PA, USA) containing 60%, 20% and 20% total calories from fat, carbohydrate and protein, respectively. The remaining 8 mice were fed a LFD (Dyets Inc., Bethlehem, PA, USA), containing 11%, 70% and 19% total calories from fat, carbohydrate and protein, respectively. XP was first dissolved in a mixture of oleic acid:propylene glycol:Tween 80 (0.9:1:1 by weight) before the solution was mixed into the HFD at a concentration of 0.066% to reach a dose of 60 mg/kg body weight/day. After 4 weeks of HFD feeding, the XP-containing HFD was given to 16 of the 32 HFD-pretreated mice for 8 weeks. Sixteen mice in HFD-pretreatment group received a HFD control diet that contained an identical amount of the mixture of oleic acid:propylene glycol:Tween 80 (0.9:1:1 by weight). The LFD-fed mice were continued on the LFD diet. Food intake and body weights were recorded weekly. The mice were euthanized at week 12.

The mark [7] stands for this setting: listed as 4-(5-(4-hydroxyphenyl)-1-methyl-1H-pyrazol-3-yl)-5-methoxy-2-(3-methylbut-2-en-1).
Where [8] appears, read: listed as 4-(5-(4-hydroxyphenyl)-1-methyl-1h-pyrazol-3-yl)-5-methoxy-2-(3-methylbut-2-en-1).

As to `COc1cc(O)c(CC=C(C)C)c(O)c1C(=O)/C=C/c1ccc(O)cc1` [XN, xanthohumol], the Cytotoxic concentration result in the data set with HepG2 cells [1] and in the data set on C2Cl2 cells [2] was “above 25 μM” in each case. Moreover, the “Metabolism” value in data set [3] was “subject to extensive phase 1 and phase 2 metabolism”.

In the case of `COc1cc(O)c(CC=C(C)C)c(O)c1-c1cc(-c2ccc(O)cc2)n(C)n1` [XP, 4-(5-(4-hydroxyphenyl)-1-methyl-1H-pyrazol-3-yl)-5-methoxy-2-(3-methylbut-2-en-1-yl)benzene-1,3-diol], the “Concentration without effect on cell viability” value in the data set on HepG2 cells [4] was “lower than 50 μM”; in the data set on HepG2 cells [4] (setting [7]) it was “up to 25 μM”; with HepG2 cells [4] (setting [8]), 1 to 50 µM; in the data set on C2Cl2 cells [5], “lower than 50 μM”; in the data set with C2Cl2 cells [5] (setting [7]), “up to 25 μM”. The “Concentration from which anti-inflammatory activity (decreased NO production) was displayed” value in data set [6] was ≥ 10 µM. Besides, the “Weight gain versus control HFD-fed mice” value in the data set with HFD-fed C57BL/6J mice (60 mg/kg body weight/day in HFD for 8 weeks after 4 weeks HFD) is listed as “gained significantly less weight”. The entries for the “Decrease in weight gain, average” value with HFD-fed C57BL/6J mice and with HFD-fed C57BL/6J mice (setting [8]) were “about 5%” and 5%, respectively. In addition, the “Food intake versus control” value with HFD-fed C57BL/6J mice (mouse, in vivo) is “no difference”.
